What all share (assay): MIC determination, broth microdilution
(In general: Dilution methods test growth across graded concentrations, often in twofold steps.)

The test system of test [1] is E. cloacae ATCC 13047. The test is classed as cell-based, Enterobacter cloacae.
The subject of test [2] is E. coli DH5α. It is filed as cell-based, Escherichia coli. Conditions: listed as measured MICs for polymyxin-supplemented assays.
Test [3] relates to A. baumannii. It is filed as cell-based, Acinetobacter baumannii. The note with it: listed as measured MICs for polymyxin-supplemented assays.
Test [4] relates to K. pneumoniae. The test is classed as cell-based, Klebsiella pneumoniae. The note with it: listed as measured MICs for polymyxin-supplemented assays.
The subject of test [5] is P. aeruginosa. The test is classed as cell-based, Pseudomonas aeruginosa. The note with it: listed as measured MICs for polymyxin-supplemented assays.

With polymyxin, the MIC of polymyxin in test [1] (E. cloacae ATCC 13047, strain not susceptible (note)) is above 64 µg/mL; in test [1] (E. cloacae, value in the list of measured MICs), 2 µg/mL; in test [2], 0.0625 µg/mL; in test [3], 0.3 µg/mL; in test [4] it was 0.15 µg/mL; in test [5] it was 0.15 µg/mL.

The values are drawn from article PMC8011376 (Journal of the American Chemical Society, 2020).
